# Data reported in patent publication US8642640B2, “1-phenylpyrrole derivatives” (Exelixis, Inc., priority 2008, dated 2014).
# Target: T1, human mineralocorticoid receptor (hMR) (Homo sapiens, UniProt P08235)
# T1 construct: expressed in transfected cells; host or cells: HEK293
# T1 sequence (P08235 726-964 limits assumed): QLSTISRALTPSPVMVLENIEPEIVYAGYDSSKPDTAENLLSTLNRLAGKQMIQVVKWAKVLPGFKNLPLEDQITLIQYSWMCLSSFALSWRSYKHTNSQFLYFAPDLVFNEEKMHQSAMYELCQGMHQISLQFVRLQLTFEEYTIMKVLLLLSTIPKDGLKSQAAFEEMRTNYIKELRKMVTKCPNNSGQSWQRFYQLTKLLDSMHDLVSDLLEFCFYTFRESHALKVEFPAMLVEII
# Experiment: GAL4-hMR-LBD luciferase reporter assay in HEK293 cells with 1 nM aldosterone (Test Example 1);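 on Imax: 0% is DMSO-only control and 100% is 1 nM aldosterone alone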
# Assay type: cell-based
# Conditions: for Emax: HEK293, read-out: Imax; for IC50: concentration showing Imax/2, HEK293, GAL4-hMR-LBD, 1 nM aldosterone, overnight, read-out: ICmax50
# Procedure: A plasmid pM-hMR-LBD expressing GAL4-hMR receptor, which has a ligand binding domain (LBD, corresponding to approximately 308 amino acids at the carboxy terminus) of human mineralocorticoid receptor (hMR, NM_000901) bonded to a DNA binding domain of yeast transcription factor GAL4 (corresponding to 147 amino acids at the amino terminus), was prepared. Reporter assay was conducted by using a reporter plasmid (such as plasmid pFR-Luc of […] CLONING SYSTEMS) including a luciferase gene, having a sequence (UAS sequence) which binds to the DNA binding domain of GAL4.
# The plasmid pM-hMR-LBD and the reporter plasmid as obtained above were gene transferred into renal cell line HEK293 of human fetus by lipofection. On the next day, cells were collected by trypsin treatment, and dispensed with DMEM culture medium containing 5% of FBS treated by activated charcoal, to a white 96-well plate (Costar) with the amount of 95 microliter per well.
# The test compounds were used as dissolved in dimethyl sulfoxide at a predetermined concentration, and the test compounds suitably diluted with culture media were added to the cells on the white 96-well plate so that the final concentration becomes 0.1%. […] After the addition, cultivation was carried out overnight.
# On the next day, the culture media was removed, and then luciferase substrate (Wako Pure Chemical Industries, Ltd.) was prepared in accordance with the attached document and were added to each well by 50 microliters. Stirring was conducted for approximately 30 minutes, and the amount of luminescence was measured for each well by using Analyst (Molecular Devices), to obtain luciferase activity. A graph which plots relative luciferase activity values, when the luciferase activity value of Control group 1 was taken as 0% and the luciferase activity value of Control group 2 was taken as 100%, for each of the amount of the test compound addition group was made.
SMILES,Emax [%],IC50 [nM]
"Cc1c(C(=O)Nc2ccc(S(N)(=O)=O)c(Cl)c2)cc(C[C@H](C)O)n1-c1ccc(F)cc1C(F)(F)F [Example 12, N-[4-(Aminosulfonyl)-3-chlorophenyl]-1-[4-fluoro-2-(trifluoromethyl)phenyl]-5-[(2S)-2-hydroxypropyl]-2-methyl-1H-pyrrole-3-carboxamide]",108,6.8
"Cc1c(C(=O)Nc2ccc(S(C)(=O)=O)cc2)cc(CCO)n1-c1ccc(Cl)cc1C(F)(F)F (single isomer, unassigned) [Example 1 - isomer B, 1-[4-Chloro-2-(trifluoromethyl)phenyl]-5-(2-hydroxyethyl)-2-methyl-N-[4-(methylsulfonyl)phenyl]-1H-pyrrole-3-carboxamide]",–,> 1000
"Cc1c(C(=O)Nc2ccc(S(N)(=O)=O)c(Cl)c2)cc(C[C@H](C)O)n1-c1ccc(F)cc1Cl (single isomer, unassigned) [Example 49 - isomer A]",–,> 1000
"Cc1c(C(=O)Nc2ccc(S(N)(=O)=O)c(Cl)c2)cc(C[C@H](C)O)n1-c1ccc(F)cc1Cl [Example 49, N-[4-(Aminosulfonyl)-3-chlorophenyl]-1-(2-chloro-4-fluorophenyl)-5-[(2S)-2-hydroxypropyl]-2-methyl-1H-pyrrole-3-carboxamide]",96,8.3
"Cc1cc(NC(=O)c2cc(C[C@H](C)O)n(-c3ccc(F)cc3OC(F)F)c2C)ccc1S(C)(=O)=O (single isomer, unassigned) [Example 22 - isomer A]",99,6.1
"Cc1c(C(=O)Nc2ccc(S(C)(=O)=O)cc2)cc(CCO)n1-c1ccc(F)cc1Cl [Example 3, 1-(2-Chloro-4-fluorophenyl)-5-(2-hydroxyethyl)-2-methyl-N-[4-(methylsulfonyl)phenyl]-1H-pyrrole-3-carboxamide]",109,30
"Cc1cc(NC(=O)c2cc(C[C@H](C)O)n(-c3ccc(F)cc3OC(F)F)c2C)ccc1S(C)(=O)=O [Example 22, 1-[2-(Difluoromethoxy)-4-fluorophenyl]-5-[(2S)-2-hydroxypropyl]-2-methyl-N-[3-methyl-4-(methylsulfonyl)phenyl]-1H-pyrrole-3-carboxamide]",111,9.1
"Cc1c(C(=O)Nc2ccc(S(C)(=O)=O)cc2)cc(C[C@H](C)O)n1-c1ccc(Cl)cc1C(F)(F)F [Example 6, 1-[4-Chloro-2-(trifluoromethyl)phenyl]-5-[(2S)-2-hydroxypropyl]-2-methyl-N-[4-(methylsulfonyl)phenyl]-1H-pyrrole-3-carboxamide]",92,6.2
"Cc1c(C(=O)Nc2ccc(S(C)(=O)=O)cc2)cc(CCO)n1-c1ccc(Cl)cc1C(F)(F)F [Example 1, 1-[4-Chloro-2-(trifluoromethyl)phenyl]-5-(2-hydroxyethyl)-2-methyl-N-[4-(methylsulfonyl)phenyl]-1H-pyrrole-3-carboxamide]",110,11
"Cc1c(C(=O)Nc2ccc(S(C)(=O)=O)cc2)cc(CCO)n1-c1ccc(F)cc1Cl (single isomer, unassigned) [Example 3 - isomer B, 1-(2-Chloro-4-fluorophenyl)-5-(2-hydroxyethyl)-2-methyl-N-[4-(methylsulfonyl)phenyl]-1H-pyrrole-3-carboxamide]",–,> 1000
"Cc1c(C(=O)Nc2ccc(S(C)(=O)=O)cc2)cc(C[C@H](C)O)n1-c1ccc(Cl)cc1C(F)(F)F (single isomer, unassigned) [Example 6 - isomer B]",–,> 1000
"Cc1c(C(=O)Nc2ccc(S(C)(=O)=O)cc2)cc(C[C@H](C)O)n1-c1ccc(F)cc1OC(F)(F)F (single isomer, unassigned) [Example 16 - isomer B]",–,> 1000
"Cc1c(C(=O)Nc2ccc(S(C)(=O)=O)cc2)cc(C[C@H](C)O)n1-c1ccc(Cl)cc1Oc1ccc(F)cc1 (single isomer, unassigned) [Example 45 - isomer A]",105,1.9
"Cc1c(C(=O)Nc2ccc(S(C)(=O)=O)cc2)cc(C[C@H](C)O)n1-c1ccc(Cl)cc1-c1ccc(F)cc1 (single isomer, unassigned) [Example 50 - isomer B]",104,1.2
"Cc1c(C(=O)Nc2ccc(S(C)(=O)=O)cc2)cc(C[C@H](C)O)n1-c1ccc(Cl)cc1Cl [Example 43, 1-(2,4-Dichlorophenyl)-5-[(2S)-2-hydroxypropyl]-2-methyl-N-[4-(methylsulfonyl)phenyl]-1H-pyrrole-3-carboxamide]",100,40
"Cc1c(C(=O)Nc2ccc(S(C)(=O)=O)cc2)cc(C[C@H](C)O)n1-c1ccc(F)cc1Cl [Example 40, 1-(2-Chloro-4-fluorophenyl)-5-[(2S)-2-hydroxypropyl]-2-methyl-N-[4-(methylsulfonyl)phenyl]-1H-pyrrole-3-carboxamide]",112,26
"Cc1c(C(=O)Nc2ccc(S(C)(=O)=O)cc2)cc(C[C@H](C)O)n1-c1ccc(F)cc1OC(F)(F)F [Example 16, 1-[4-Fluoro-2-(trifluoromethoxy)phenyl]-5-[(2S)-2-hydroxypropyl]-2-methyl-N-[4-(methylsulfonyl)phenyl]-1H-pyrrole-3-carboxamide]",94,7.8
"Cc1c(C(=O)Nc2ccc(S(C)(=O)=O)cc2)cc(C[C@H](C)O)n1-c1ccc(F)cc1OC(F)F [Example 9, 1-[2-(Difluoromethoxy)-4-fluorophenyl]-5-[(2S)-2-hydroxypropyl]-2-methyl-N-[4-(methylsulfonyl)phenyl]-1H-pyrrole-3-carboxamide]",114,41
"Cc1c(C(=O)Nc2ccc(S(C)(=O)=O)cc2)cc(C[C@H](C)O)n1-c1ccc(Cl)cc1Oc1ccc(F)cc1 [Example 45, 1-[4-Chloro-2-(4-fluorophenoxy)phenyl]-5-[(2S)-2-hydroxypropyl]-2-methyl-N-[4-(methylsulfonyl)phenyl]-1H-pyrrole-3-carboxamide]",85,7.1
"CCc1c(C(=O)Nc2ccc(S(C)(=O)=O)cc2)cc(C[C@H](C)O)n1-c1ccc(F)cc1Cl (single isomer, unassigned) [Example 44 - isomer A]",–,> 1000
"Cc1c(C(=O)Nc2ccc(S(C)(=O)=O)cc2)cc(CCF)n1-c1ccc(F)cc1OC(F)F (single isomer, unassigned) [Example 54 - isomer B, 1-[2-(Difluoromethoxy)-4-fluorophenyl]-5-(2-fluoroethyl)-2-methyl-N-[4-(methylsulfonyl)phenyl]-1H-pyrrole-3-carboxamide]",–,> 1000
"Cc1c(C(=O)Nc2ccc(S(C)(=O)=O)cc2)cc(C[C@H](C)O)n1-c1ccc(F)cc1OC(F)F (single isomer, unassigned) [Example 9 - isomer B]",–,> 1000
"Cc1c(C(=O)Nc2ccc(S(C)(=O)=O)cc2)cc(C[C@H](C)O)n1-c1ccc(Cl)cc1Oc1ccc(F)cc1 (single isomer, unassigned) [Example 45 - isomer B]",–,> 1000
"Cc1c(C(=O)Nc2ccc(S(C)(=O)=O)cc2)cc(C[C@H](C)O)n1-c1ccc(F)cc1C(F)(F)F [Example 5, 1-[4-Fluoro-2-(trifluoromethyl)phenyl]-5-[(2S)-2-hydroxypropyl]-2-methyl-N-[4-(methylsulfonyl)phenyl]-1H-pyrrole-3-carboxamide]",125,3.9
"Cc1cc(NC(=O)c2cc(C[C@H](C)O)n(-c3ccc(F)cc3OC(F)F)c2C)ccc1S(C)(=O)=O (single isomer, unassigned) [Example 22 - isomer B]",–,> 1000
"Cc1c(C(=O)Nc2ccc(S(C)(=O)=O)cc2)cc(C[C@H](C)O)n1-c1ccc(Cl)cc1OC(F)(F)F (single isomer, unassigned) [Example 42 - isomer A]",–,> 1000
"Cc1c(C(=O)Nc2ccc(S(N)(=O)=O)c(Cl)c2)cc(C[C@H](C)O)n1-c1ccc(F)cc1C(F)(F)F (single isomer, unassigned) [Example 12 - isomer A]",113,3.1
"Cc1c(C(=O)Nc2ccc(S(C)(=O)=O)cc2)cc(CCO)n1-c1ccc(F)cc1Cl (single isomer, unassigned) [Example 3 - isomer A, 1-(2-Chloro-4-fluorophenyl)-5-(2-hydroxyethyl)-2-methyl-N-[4-(methylsulfonyl)phenyl]-1H-pyrrole-3-carboxamide]",114,21
"Cc1cc(Cl)ccc1-n1c(CCF)cc(C(=O)Nc2ccc(S(C)(=O)=O)cc2)c1C [Example 51, 1-(4-Chloro-2-methylphenyl)-5-(2-fluoroethyl)-2-methyl-N-[4-(methylsulfonyl)phenyl]-1H-pyrrole-3-carboxamide]",115,19
